Measurements taken from patent US20100311107A1, “Ultra-High Throughput Screening of Natural Products” (priority 2004, published 2010).
Like-named read-outs stand apart in the source and are kept apart here.

Experiments:
Assay type in all cases: cell-based, Escherichia coli
screening strain DR1212 = assay: macrodroplet screening assay for DNA-interacting agents; details: DNA excluded from the bioassay medium
Procedure: (§1) After the period of incubation as described above, macrodroplets can be screened for biological activities by a unique technique termed macrodroplet screening assay. The biological activities of compounds secreted by the encapsulated microorganisms and contained within the macrodroplet beads can be detected by, for example, cell growth inhibition. In general, screening strains should first be cultured to a certain cell density (proper OD reads as described in section 5.3.3.) in liquid medium and then plated in semi-solid medium matrix (0.8%), which overlays the macrodroplet beads (see FIG. 1, item 140. Item 145 of FIG. 1 represents the top layer of semi-solid medium matrix containing a selected screening strain). After being incubated overnight, the screening strain can grow throughout the matrix, except in areas where macrodroplet beads release metabolites, which prevent the growth of the screening strain. The inhibition of cell growth may result in zones of inhibition around these beads (see item 155, FIG. 1), which usually can be detected visually.
Screening for DNA-interacting agents was carried out using the standard macrodroplet screening method previously described, with the exception that DNA was excluded from the bioassay medium. Following overnight incubation at 35° C., macrodroplet beads from zones of inhibition are recovered and processed via the normal route as discussed in section 5.2.2.4.
Alternatively, a second round screening was performed to increase specificity of the screening. Microorganisms obtained as the outcome of the screening described above were subject to a second round of screening using screening strains having a lacZ reporter gene controlled by promoters responsive to DNA damage, such as CM191 and CM242 (see section 5.3.1.d. The details of screening procedure are discussed in both section 5.2.3. Microorganisms from macrodroplets producing zones of activity were purified using methods previously described and fermented in larger volumes. Their species specificities were determined by sequencing their 16S rRNA genes and the active compounds were purified and further characterized. Several active compounds were selected by DR1212, such as chrysomycin, streptonigrin, daunomycin and chromomycin, which are all known DNA damaging agents.

E. coli MG1655 = tested on: E. coli MG1655; set-up: unit not given here
Procedure: (§2) The screening strain, DR1234, was established after all desired drug-resistant genes listed in Table 5 had been delivered into the parent E. coli strain, MG1655, by methods described above. Its level of drug resistance was analyzed by the standard minimum inhibitory concentration (MIC) assay in MHB liquid medium (Chantot, et al., 1986, “Antibacterial activity of roxithromycin: a laboratory evaluation,” J. Antibiot, 39(5):660-8) and the result was summarized in Table 7.
(§3) The level of drug resistance of CM166 was estimated by MIC assay carried out in MHB liquid medium and the results were summarized in Table 9. CM166 is resistant to antibacterial agents whose resistant genes have been incorporated into the strain, but not to other antibacterial drugs whose resistant genes are not incorporated.
(§4) The level of drug-resistance of screening strain DR1212 was analyzed by standard MIC assay in MHB liquid medium and the result was summarized in Table 11. Similar to screening strains, DR1234 and CM166, DR1212 is also resistant to drugs whose resistant genes have been introduced.
(§5) The level of drug resistance of these screening strains (both intermediates and finals) was evaluated by standard MIC assay in MHB liquid medium and the result of Strain CM242 is summarized in Table 12.
(§6) The level of drug resistance of screening strains CM400 and CM435 was evaluated by standard MIC assay in MHB liquid medium and the results are summarized in Table 13. According to the MIC results, CM435 is hypersensitive to Bleomycin, Daunorucibin, Coumermycin A1 and Erythromycin. Screening strain CM435 and others, which are hypersensitive to certain types of antimicrobial agents, are advantageous in detecting bioactive compounds with low concentration in the screening system.

[1] = tested on: E. coli screening strain CM400; set-up: unit not given here; details: Table 13, MHB medium
Procedure: as §6

[2] = tested on: E. coli screening strain CM435; set-up: Minimal inhibitory concentrations (MIC90) CM435: unit not given here; details: for Minimal inhibitory concentrations (MIC90) CM435: Table 13, MHB medium
[3] = tested on: E. coli screening strain CM242; set-up: unit not given here; details: second Table 12, MHB medium
Procedure: as §5

[4] = tested on: E. coli screening strain DR1234; set-up: unit not given here; details: Table 7, MHB medium
Procedure: as §2

[5] = tested on: E. coli screening strain DR1212; set-up: unit not given here; details: Table 11, MHB medium
Procedure: as §4

[6] = tested on: E. coli screening strain CM166; set-up: unit not given here; details: Table 9, MHB medium
Source text: as §3

[7] = tested on: PsulA′-'lacZ fusion gene in CM191; assay: β-galactosidase activity in the presence of DNA damaging drugs; details: CM191, two hours after addition, 0.5 μg/ml
Procedure: (§7) The responses to DNA damaging agents of the screening strains described above were measured by analyzing the β-galactosidase activity in the presence of DNA damaging drugs. This method is described in detail in “A Short Course in Bacterial Genetics” 1992, ed. Miller, Cold Spring Harbor Press, pp. 72-74. The PsulA′-'lacZ fusion gene in CM191 was induced 15 fold compared to a non-induced control two hours after the addition of mitomycin C (0.5 μg/ml). In the case of CM242 which contains the PrecN′-'lacZ fusion gene, a more than 40-fold induction had been observed. Such induction was also drug-specific. In an experiment when phosphomycin (at 10 μg/ml) was used, there was no induction of the β-galactosidase activity.

[8] = tested on: PrecN′-'lacZ fusion gene in CM242; assay: as above
Procedure: as §7

[9] = tested on: lacZ reporter gene of the screening strains (CM191, CM242); assay: S-Gal staining assay on solid medium; details: screening strains on solid medium, drug-impregnated disks, PETG to suppress background
Source text: The screening strains' responses to DNA damaging agents were further confirmed by S-Gal staining assay. When mitomycin C and streptonigrin (both were well-known DNA damaging drugs) and S-Gal, the indicator, were applied to the screening strains growing on solid medium, blue-colored rings were visible around colonies in drug-impregnated disks. […] Actinomycin D was an exception. CM242 was not sensitive to this drug, although it disrupts DNA structure. PETG (2-phenyethyl B-D-thiogalactoside, Sigma, St Louis Mo.), was used in this experiment to suppress unspecific background activity.

screening strain CM166 = assay: macrodroplet screening assay, zones of inhibition; details: soil actinomycetes in macrodroplets, DNA and biotin in medium
Procedure: as §1
Next, microorganisms from the soil samples collected as described above were encapsulated to form macrodroplets populated by a single microorganism in each bead, according to the pre-determined cfu count of the particular soil extract. In this process, an aliquot of the soil bacteria suspension was diluted in 10% glycerol to generate an inoculum of the required density. This adjusted suspension was then mixed with nutrient medium, counterselective agents (see above) and 1.4% sodium alginate and the resultant mixture processed through an Inotech Encapsulator® Research device, to produce gel-beads (called macrodroplets) by the formation of droplets of liquid from a fluid stream. The droplets solidified into gel-beads as they came into contact with a calcium chloride bath, which also contained nutrient medium and counterselective agents. After a defined hardening time the macrodroplets were washed to remove excess calcium chloride and to stop the hardening process. Smidsrod and Skjak-Braek, 1990, “Alginate as immobilization matrix for cells,” Trends Biotechnol. 8(3):71-8. Cured macrodroplets containing microorganisms were then spread in dishes from which excess fluid was removed. The macrodroplets subsequently allowed growth of the target organisms and production of secondary metabolites such as anti-microbial agents. Macrodroplets were spread evenly over the plate using a sterile spreader (5,000 particles per plate) and incubated at 28-30° C. for 7 days to allow the growth of the microorganism within, and the production of secondary metabolites.
CM166 (see section 5.3.1.b for details) was used as the test strain in this example. Two to three single colonies of CM166 were inoculated into a shake flask containing 10 ml of MHB medium with 40 μg/ml Tmp and 200 μg/ml Amp. After the cells were cultured at 35° C. for 2-3 hours, an OD reading was performed. If the OD reading was above 0.1 (equivalent to 2×10^8 cfu), the screening strain was ready for dilution. Otherwise, the strain needed to be incubated for longer time until the OD read reached >0.1. Medium for the macrodroplet assay (in 1 L Duran, add 10.5 g MHB power, 4 g agar (0.8%), and 1 g DNA) was autoclaved and cooled to ˜45° C., and ampicillin (25 mg/ml), tetracycline (10 mg/ml), daptomycin (20 mg/ml) and biotin (0.1 μg/ml) were added, together with 2.5 ml screening strain. […]

## COc1cccc2c1C(=O)c1c(O)c3c(c(O)c1C2=O)C[C@@](O)(C(C)=O)C[C@@H]3O[C@H]1C[C@H](N)[C@H](O)[C@H](C)O1 [Daunorubicin]
Screening strain DR1212
  active compound selected by DR1212: active
E. coli MG1655; Table 7, MHB medium
  Minimal inhibitory concentrations (MIC90) MG1655: 200
E. coli MG1655; Table 9, MHB medium
  Minimal inhibitory concentrations (MIC90) MG1655: 200
E. coli MG1655; Table 11, MHB medium
  Minimal inhibitory concentrations (MIC90) MG1655: 200
E. coli MG1655; Table 13, MHB medium
  Minimal inhibitory concentrations (MIC90) MG1655: >256
E. coli MG1655; second Table 12, MHB medium
  Minimal inhibitory concentrations (MIC90) MG1655: 200
[1]
  Minimal inhibitory concentrations (MIC90) CM400: >256
[2]; MHB liquid medium
  sensitivity of CM435 according to the MIC results: hypersensitive
[2]
  Minimal inhibitory concentrations (MIC90) CM435: 8
[3]
  Minimal inhibitory concentrations (MIC90) CM242: 100
[4]
  Minimal inhibitory concentrations (MIC90) DR1234: >400
[5]
  Minimal inhibitory concentrations (MIC90) DR1212: 12.5
[6]
  Minimal inhibitory concentrations (MIC90) CM166: >400

## CO[C@@]12[C@H](COC(N)=O)C3=C(C(=O)C(C)=C(N)C3=O)N1C[C@@H]1N[C@@H]12 [Mitomycin C]
E. coli MG1655
  Minimal inhibitory concentrations (MIC90) MG1655: 0.8
[3]
  Minimal inhibitory concentrations (MIC90) CM242: 3.2
[7]
  induction of PsulA′-'lacZ fusion gene compared to a non-induced control: 15 fold
[8]; CM242, 0.5 μg/ml
  induction of PrecN′-'lacZ fusion gene: more than 40 fold
[4]
  Minimal inhibitory concentrations (MIC90) DR1234: 3.2
[9]
  lacZ reporter gene expression (S-Gal, blue-colored rings): induced
[5]
  Minimal inhibitory concentrations (MIC90) DR1212: <0.4
[6]
  Minimal inhibitory concentrations (MIC90) CM166: 3.2

## C[C@@H]1O[C@@H]1P(=O)(O)O [Phosphomycin]
E. coli MG1655; Table 13, MHB medium
  Minimal inhibitory concentrations (MIC90) MG1655: 32
[1]
  Minimal inhibitory concentrations (MIC90) CM400: 8
[2]
  Minimal inhibitory concentrations (MIC90) CM435: 64
[8]; at 10 μg/ml, strain not specified
  induction of the β-galactosidase activity: no induction

## COC1=C(N)C(=O)c2nc(-c3nc(C(=O)O)c(C)c(-c4ccc(OC)c(OC)c4O)c3N)ccc2C1=O [Streptonigrin]
Screening strain DR1212
  active compound selected by DR1212: active
E. coli MG1655; Table 7, MHB medium
  Minimal inhibitory concentrations (MIC90) MG1655: 3.2
E. coli MG1655; Table 9, MHB medium
  Minimal inhibitory concentrations (MIC90) MG1655: 3.2
E. coli MG1655; Table 11, MHB medium
  Minimal inhibitory concentrations (MIC90) MG1655: 3.2
E. coli MG1655; Table 13, MHB medium
  Minimal inhibitory concentrations (MIC90) MG1655: 8
E. coli MG1655; second Table 12, MHB medium
  Minimal inhibitory concentrations (MIC90) MG1655: 3.2
[1]
  Minimal inhibitory concentrations (MIC90) CM400: 8
[2]
  Minimal inhibitory concentrations (MIC90) CM435: 0.5
[3]
  Minimal inhibitory concentrations (MIC90) CM242: 3.2
[4]
  Minimal inhibitory concentrations (MIC90) DR1234: 3.2
[9]
  lacZ reporter gene expression (S-Gal, blue-colored rings): induced
[5]
  Minimal inhibitory concentrations (MIC90) DR1212: ≦0.2
[6]
  Minimal inhibitory concentrations (MIC90) CM166: 1.6

## CCC(=O)Nc1c2sscc-2n(C)c1=O [aureothricin]
Screening strain CM166
  bioactive compound of actinomycete strains selected with CM166: bioactive

## COC1C(O)CC(OC2CC(Oc3cc4cc5c(c(O)c4c(O)c3C)C(=O)[C@@H](OC3CC(OC4CC(OC6CC(C)(O)C(OC(C)=O)C(C)O6)C(O)C(C)O4)C(O)C(C)O3)[C@H]([C@H](OC)C(=O)[C@@H](O)[C@@H](C)O)C5)OC(C)C2OC(C)=O)OC1C (stereo partly drawn) [chromomycin]
Screening strain DR1212
  active compound selected by DR1212: active

## O=C(O)/C=C/CC[C@@H]1SC[C@@H]2NC(=O)N[C@@H]21 [lydimycin]
Screening strain CM166
  bioactive compound of actinomycete strains selected with CM166: bioactive

## CC(=O)Nc1c2sscc-2n(C)c1=O [thiolutin]
Screening strain CM166
  bioactive compound of actinomycete strains selected with CM166: bioactive

## albomycin
Screening strain CM166
  bioactive compound of actinomycete strains selected with CM166: bioactive

## chrysomycin
Screening strain DR1212
  active compound selected by DR1212: active

## streptavidin
Screening strain CM166
  bioactive compound of actinomycete strains selected with CM166: bioactive
